This is an account of results in patent publication US11339144B2 (Navitor Pharmaceuticals, Inc., priority 2017, dated 2022).

HA-GST-Rheb (GTP-γ-S loaded) activating mTORC1, sequence (Q15382 1-181): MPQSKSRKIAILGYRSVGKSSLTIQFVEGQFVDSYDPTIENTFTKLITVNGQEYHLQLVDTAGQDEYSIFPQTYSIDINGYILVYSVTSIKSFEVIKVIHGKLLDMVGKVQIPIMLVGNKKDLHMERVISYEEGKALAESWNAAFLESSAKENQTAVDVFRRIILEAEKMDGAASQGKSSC

This assay has as its target HA-GST-Rheb (GTP-γ-S loaded) activating mTORC1 (Homo sapiens (Human), UniProt Q15382). The assay can be described thus: Rheb-dependent in vitro kinase assay (Rheb-IVK; LanthaScreen or Western readout). The conditions noted are these: Rheb-dependent in vitro kinase assay; read-out: IVK IC50. In kind it is biochemical.
As to `CCn1c(CO)nc2cc(OCc3ccccc3)cc(Cl)c21` [I-412], the IC50 is more than 100 µM. The value for `COC(=O)c1ccc(Sc2cccc3[nH]ccc23)cc1` [I-188] was more than 100 µM; that for `CCn1c(CO)nc2cc(OCc3cccc(Cl)c3)c(Cl)cc21` [I-401] was more than 100 µM; that for `OCc1nc2c(Oc3ccc(Cl)cc3)cccc2n1Cc1nc[nH]n1` [I-408] was more than 100 µM. The value for `OCc1nc2cc(OCc3ccccc3)c(Cl)cc2n1CC(F)(F)F` [I-457] was more than 100 µM; that for `c1ccc(Oc2cccc3nc(-c4ncco4)n(Cc4ccc(-c5nn[nH]n5)cc4)c23)cc1` [I-422] was more than 100 µM; that for `Cn1ccc2c(Sc3ccc(Cl)cc3)cc(Cl)cc21` [I-205] was more than 100 µM.

`OCc1nc2cc(OCc3ccccc3Cl)c(Cl)cc2[nH]1` [I-485, (5-chloro-6-(2-chlorobenzyloxy)-1H-benzo[d]imidazol-2-yl)methanol]: the IC50 lay in the range of 300 to 800 µM. With `O=S(=O)(c1ccc(Cl)cc1)c1cccc2[nH]ccc12` [I-242], the IC50 is more than 100 µM. The value for `OCc1cc2cc(Sc3ccccc3)ccc2n1Cc1nc[nH]n1` [I-181] was more than 100 µM; that for `CCn1c(CO)nc2cc(Cl)c(OCc3cccc(Cl)c3)cc21` [I-448] was more than 100 µM. In the case of `Nc1nonc1-c1nc2cc(Cl)c(Cl)cc2[nH]1` [I-477] it was more than 100 µM; in that of `Cn1ccc2c(NC3CCCNC3)cccc21` (stereo not shown) [I-298], more than 100 µM. In the case of `Cn1c(CO)cc2c(Oc3cccc(F)c3)cccc21` [I-262] it was more than 100 µM; in that of `OCc1nc2c(OCc3cncnc3O)c(Cl)c(Cl)cc2[nH]1` [I-405], more than 100 µM. For `CCn1c(CO)nc2cc(Cl)c(OCc3ccccc3)cc21` [I-488], the IC50 was more than 100 µM. For `OCc1cc2c(Oc3cccc(F)c3)cccc2[nH]1` [I-264], the IC50 was more than 100 µM.

Turning to `Cn1ccc2c(Oc3cccc(Cl)c3)cccc21` [I-270], the IC50 is more than 100 µM. Consider `Clc1cccc(Oc2cccc3[nH]ccc23)c1` [I-284, 4-(3-chlorophenoxy)-1H-indole], for which the IC50 lay in the range of 10 to 100 µM. The value for `O=C(O)c1ccc(Sc2cccc3[nH]ccc23)cc1` [I-192] was more than 100 µM; that for `N#Cc1cccc(COc2c(Cl)c(Cl)cc3[nH]c(CO)nc23)c1` [I-459] was more than 100 µM; that for `N#Cc1ccccc1COc1c(Cl)c(Cl)cc2[nH]c(CO)nc12` [I-472] was more than 100 µM. The value for `CCn1c(CO)nc2cc(OCc3ccc(F)cc3)c(Cl)cc21` [I-444] was more than 100 µM; that for `Nc1nonc1-c1nc2cc(Cl)c(Cl)cc2n1Cc1ccccc1` [I-491] was more than 100 µM; that for `CCn1c(CO)nc2cc(OCc3cccc(F)c3)c(Cl)cc21` [I-442] was more than 100 µM.

Regarding `CCn1c(CO)nc2cc(Cl)c(OCc3ccccc3Cl)cc21` [I-433], the IC50 is more than 100 µM. `Cc1cc2c(Sc3ccc(Cl)cc3)cccc2[nH]1` [I-203]: the IC50 is more than 100 µM. In the case of `CCn1c(CO)nc2cc(OCc3ccccc3F)c(Cl)cc21` [I-461] it was more than 100 µM; in that of `Clc1ccc(Sc2cc(Cl)c3cc[nH]c3c2)cc1` [I-201, 4-chloro-6-(4-chlorophenylthio)-1H-indole], 10 to 100 µM; in that of `NC(=O)Cn1c(CO)nc2cc(OCc3ccccc3)c(Cl)cc21` [I-475, 2-(5-(benzyloxy)-6-chloro-2-(hydroxymethyl)-1H-benzo[d]imidazol-1-yl)acetamide], 100 to 300 µM. In the case of `N#Cc1ccc(Cn2c(-c3ncco3)nc3cc(Cl)c(Cl)cc32)cc1` [I-453] it was more than 100 µM. The value for `OCc1nc2cc(Cl)c(OCc3ccccc3)cc2n1Cc1nc[nH]n1` [I-402] was more than 100 µM. Regarding `Cn1ccc(-c2cc(Oc3ccccc3)cc3[nH]c(CO)cc23)n1` [I-213], the 50% inhibitory concentration (IC50) was more than 100 µM. The value for `OCc1cc2c(C3CCCCC3)cc(Oc3ccccc3)cc2[nH]1` [I-223] was more than 100 µM.

Regarding `Cn1c(CO)cc2c(Oc3ccccc3F)cccc21` [I-274], the IC50 is more than 100 µM. Regarding `CNC(=O)c1ccc(Sc2cccc3[nH]ccc23)cc1` [I-184], the IC50 was more than 100 µM. Consider `N#CCc1nc2c(OCc3ccccc3)c(Cl)ccc2[nH]1` [I-469], for which the IC50 is more than 100 µM. In the case of `CCn1c(CO)nc2cc(OCc3ccccc3Cl)c(Cl)cc21` [I-432] it was more than 100 µM. On to `CCOCc1nc2cc(OCc3ccccc3)cc(Cl)c2n1CC` [I-414], for which the IC50 is more than 100 µM. Regarding “(4-(2-(2-aminopyridin-4-yl)ethoxy)-5,6-dichloro-1H-benzo[d]imidazol-2-yl)methanol [I-182]”, the IC50 was more than 100 µM. The value for `OCc1cc2c(Br)cc(Oc3ccccc3)cc2n1Cc1nc[nH]n1` [I-225] was more than 100 µM. As for `Cn1c(CO)cc2c(Oc3ccccc3)cc(Cl)cc21` [I-281], the IC50 was more than 100 µM. As for `OCc1nc2c(OCC3CCCN3)c(Cl)c(Cl)cc2[nH]1` (stereo not shown) [I-468], the IC50 was more than 100 µM. In the case of `Clc1cc2cc[nH]c2cc1Oc1ccccc1` [I-258] it was more than 100 µM; in that of `Nc1ccnc(COc2c(Cl)c(Cl)cc3[nH]c(CO)nc23)n1` [I-420], more than 100 µM; in that of `O=C(O)CCc1cc2c(Oc3ccccc3)c(Cl)ccc2[nH]1` [I-253], more than 100 µM. The value for `Cn1c(CO)cc2c(Oc3ccccc3Cl)cccc21` [I-272] was more than 100 µM; that for `Cn1ccc2c(Oc3ccc(F)cc3)cccc21` [I-265] was more than 100 µM; that for `O=C1CCCC(COc2c(Cl)c(Cl)cc3[nH]c(CO)nc23)N1` (stereo not shown) [I-465, 6-((5,6-dichloro-2-(hydroxymethyl)-1H-benzo[d]imidazol-4-yloxy)methyl)piperidin-2-one] was 100 to 300 µM. The value for `Cn1c(CO)cc2c(Oc3ccccc3)c(Cl)ccc21` [I-289] was more than 100 µM; that for `OCc1nc2cc(OCc3ccccc3)c(Cl)cc2n1Cc1nc[nH]n1` [I-403, (1-((1H-1,2,4-triazol-3-yl)methyl)-5-(benzyloxy)-6-chloro-1H-benzo[d]imidazol-2-yl)methanol] was 100 to 300 µM. On to `Clc1cccc(Cl)c1Oc1cccc2[nH]ccc12` [I-228], for which the IC50 was more than 100 µM. On to `NC(=O)c1cccc(Cn2c(-c3ncco3)nc3cc(Cl)c(Cl)cc32)c1` [I-447], for which the IC50 was more than 100 µM. As to `Cn1c(CO)nc2c(OC[C@H]3CCCC[C@@H]3O)c(Cl)c(Cl)cc21` (racemic) [I-387, (+,−)-trans-2-((5,6-dichloro-2-(hydroxymethyl)-1-methyl-1H-benzo[d]imidazol-4-yloxy)methyl)cyclohexanol], the half-inhibitory concentration (IC50) is 100 to 300 µM.

In the case of `CCn1c(CO)nc2cc(Cl)c(OCc3cccc(F)c3)cc21` [I-443], the 50% inhibitory concentration (IC50) is more than 100 µM. As for `Nc1nonc1-c1nc2cc(Cl)c(Cl)cc2n1Cc1ccc(-c2nn[nH]n2)cc1` [I-490, 4-(1-(4-(2H-tetrazol-5-yl)benzyl)-5,6-dichloro-1H-benzo[d]imidazol-2-yl)-1,2,5-oxadiazol-3-amine], the IC50 fell in the range of 10 to 100 µM. The value for `OCc1nc2cc(OCc3ccccc3)c(Cl)cc2n1Cc1ccccc1` [I-466] was more than 100 µM; that for `CCn1c(CO)nc2cc(OCc3ccccc3)ccc21` [I-416] was more than 100 µM; that for `O=S(=O)(c1ccccc1Cl)c1cccc2[nH]ccc12` [I-232] was more than 100 µM.

On to `N#CCc1nc2c(Oc3ccccc3)cccc2[nH]1` [I-471], for which the half-inhibitory concentration (IC50) was more than 100 µM. In the case of `Cn1c(CO)cc2c(Oc3ccccc3)cccc21` [I-280] it was more than 100 µM.
